Test results published in patent US20070218460A1, “Method of Estimating Toxicity of Drug” (TAKEDA PHARMACEUTICAL COMPANY LIMITED, priority 2003, published 2007).

Legend:
HepG2 cells [1] = assay: Electron-microscopic examination of PLsis induction potential (myelin-like structure)
Source text: Using 30 kinds of the following commercially available drugs as test compounds, the level of PLsis induction potential was examined with the emergence of an intracellular myelin-like structure or a structure having a high electron density, which is an early image thereof, as an index by electronmicroscopic observation.
HepG2 cells (purchased from ATCC) were exposed to the test compound by a conventional method. HepG2 cells used were of the cell growth phase. The attached HepG2 cells were washed twice with. Dulbecco's phosphate buffered saline (calcium and magnesium salt free; PBS(−))(Dainippon Pharmaceutical Co., Ltd.) containing 0.05 w/v % EDTA, detached with a cell dissociation solution of 0.25 vol % trypsin-1 mmol/L EDTA (Gibco BRL) diluted 2-fold with PBS(−), centrifuged to remove the supernatant, and adjusted to a concentration of 2×10^5 cells/250 μL with a culture medium [Dulbecco's modified Eagle medium (DMEM)(Gibco BRL) supplemented with 50 U/mL penicillin (Gibco BRL)-[…] streptomycin (Gibco BRL) and 5 vol % FBS (Bio whittaker)]. DMSO alone or a culture medium containing the above-mentioned test compound in DMSO solution was dispensed to a well by 250 μL, the above-mentioned cell suspension (250 μL) was added, and cultured in a CO2 incubator (7100; Napco) under an atmosphere of 5% CO2—95% air at 37° C.
After culture for 72 hr, the culture medium was removed, and the cells were fixed with 1 w/v % glutaraldehyde solution. After fixing with 2 w/v % osmic acid for 2 hr by a conventional method and dehydrating with an alcohol series, the cells were embedded in a resin (Quetol 812). Ultrathin slices were prepared and, after electron staining, observed with an electron microscope (H-300; Hitachi) and photographed in 3 or more pictures per each sample (magnification ×5000). The processing after post-fixation was performed by Applied Medical Research.

tagln = assay: Real-time quantitative PCR of PLsis marker gene expression; type: cell-based, human; settings: HepG2 cells, 24 hr exposure, relative value, control group = 1.0, GAPDH internal standard, n=3
Experimental: (§1) Using RNeasy Mini Kit (QIAGEN), total RNA was purified from the cells, and cDNA was synthesized in a 100 μL system using TaqMan Reverse Transcription Reagents (PE Applied Biosystems).
(§2) As the primer for glyceraldehyde-3-phosphoric acid dehydrogenase (GAPDH) and VIC labeled probe, those attached to TaqMan GAPDH Control Reagents (PE Applied Biosystems) were used.
(§3) Using 100 μL of the reaction mixture containing 5 μL of cDNA (1×TaqMan Universal PCR Master Mix (PE Applied Biosystems), 200 nM forward primer, 200 nM reverse primer and 200 nM TaqMan probe), 40 cycles of (1 cycle=95° C., 15 sec; 60° C., 1 min) PCR were performed. PCR and fluorescence detection were performed using ABI PRISM Sequence Detector 7000 (PE Applied Biosystems). As the internal standard, GAPDH was used to amend the measurement values. For the determination of significant difference, t-test was used (n=3).
(§4) For each test compound, the expression variation rate of 12 genes each relative to the control group was determined.

serpina3 = assay: as above; type: cell-based, human; settings: HepG2 cells, 24 hr exposure, relative value, control group = 1.0, GAPDH internal standard, n=3
Experimental: as §1, §2, §3, §4

depp = assay: as above; type: cell-based, human; settings: HepG2 cells, 24 hr exposure, relative value, control group = 1.0, GAPDH internal standard, n=3
Experimental: as §1, §2, §3, §4

kiaa1001 = assay: as above; type: cell-based, human; settings: HepG2 cells, 24 hr exposure, relative value, control group = 1.0, GAPDH internal standard, n=3
Experimental: as §1, §2, §3, §4

fabp1 = assay: as above; type: cell-based, human; settings: HepG2 cells, 24 hr exposure, relative value, control group = 1.0, GAPDH internal standard, n=3
Experimental: as §1, §2, §3, §4

mgc4171 = assay: as above; type: cell-based, human; settings: HepG2 cells, 24 hr exposure, relative value, control group = 1.0, GAPDH internal standard, n=3
Experimental: as §1, §2, §3, §4

flj22362 = assay: as above; type: cell-based, human; settings: HepG2 cells, 24 hr exposure, relative value, control group = 1.0, GAPDH internal standard, n=3
Experimental: as §1, §2, §3, §4

asah1 = assay: as above; type: cell-based, human; settings: HepG2 cells, 24 hr exposure, relative value, control group = 1.0, GAPDH internal standard, n=3
Experimental: as §1, §2, §3, §4

hpn = assay: as above; type: cell-based, human; settings: HepG2 cells, 24 hr exposure, relative value, control group = 1.0, GAPDH internal standard, n=3
Experimental: as §1, §2, §3, §4

nr0b2 = assay: as above; type: cell-based, human; settings: HepG2 cells, 24 hr exposure, relative value, control group = 1.0, GAPDH internal standard, n=3
Experimental: as §1, §2, §3, §4

slc2a3 = assay: as above; type: cell-based, human; settings: HepG2 cells, 24 hr exposure, relative value, control group = 1.0, GAPDH internal standard, n=3
Experimental: as §1, §2, §3, §4

lss = assay: as above; type: cell-based, human; settings: HepG2 cells, 24 hr exposure, relative value, control group = 1.0, GAPDH internal standard, n=3
Experimental: as §1, §2, §3, §4

HepG2 cells [2] = assay: Highest concentration at which cells were viable after 72 hr exposure; type: cell-based, human

Structure (SMILES)	frequency of appearance of myelin-like structure (HepG2 cells [1])	expression variation rate tagln (tagln)	expression variation rate serpina3 (serpina3)	expression variation rate depp (depp)	expression variation rate kiaa1001 (kiaa1001)	expression variation rate fabp1 (fabp1)	expression variation rate mgc4171 (mgc4171)	expression variation rate flj22362 (flj22362)	expression variation rate asah1 (asah1)	expression variation rate hpn (hpn)	expression variation rate nr0b2 (nr0b2)	expression variation rate slc2a3 (slc2a3)	expression variation rate lss (lss)	addition concentration (highest concentration at which cells survived after 72 hr of culture) (HepG2 cells [2]) [µmol/L]
CN(C)CCCN1c2ccccc2CCc2ccc(Cl)cc21 [clomipramine]	+	0.78	2.03	2.08	3.83	2.36	1.41	1.46	0.82	2.39	0.98	0.63	1.52	8.3
CC(C)N(CCC(C(N)=O)(c1ccccc1)c1ccccn1)C(C)C (centres unmarked) [disopyramide]	−	0.99	0.99	0.90	0.94	1.02	1.21	0.98	1.85	1.12	0.63	1.03	1.14	25
CC[C@H]1OC(=O)[C@H](C)[C@@H](O[C@H]2C[C@@](C)(OC)[C@@H](O)[C@H](C)O2)[C@H](C)[C@@H](O[C@@H]2O[C@H](C)C[C@H](N(C)C)[C@H]2O)[C@](C)(O)C[C@@H](C)C(=O)[C@H](C)[C@@H](O)[C@]1(C)O [erythromycin]	−	0.85	0.85	0.71	0.78	0.73	0.86	0.92	0.90	0.87	0.90	0.73	0.87	25
O=C(NCC1CCCCN1)c1cc(OCC(F)(F)F)ccc1OCC(F)(F)F (centres unmarked) [flecainide]	−	0.86	1.60	1.73	2.10	1.50	1.57	1.65	2.42	1.26	1.02	0.46	1.22	25
CNCCC(Oc1ccc(C(F)(F)F)cc1)c1ccccc1 (centres unmarked) [fluoxetine]	+++	0.20	1.73	3.08	1.93	2.80	1.34	2.15	6.55	2.39	2.70	0.09	3.51	8.3
C[C@H]1COc2c(N3CCN(C)CC3)c(F)cc3c(=O)c(C(=O)O)cn1c23 [levofloxacin]	−	0.90	0.92	0.83	0.70	0.88	0.79	0.83	1.10	0.83	0.79	1.07	0.75	25
CC1COc2c(N3CCN(C)CC3)c(F)cc3c(=O)c(C(=O)O)cn1c23 (centres unmarked) [ofloxacin]	−	0.74	0.82	0.79	0.86	0.75	0.77	0.68	1.17	0.72	0.81	0.94	0.78	25

More lines, main results first:

frequency of appearance of myelin-like structure (HepG2 cells [1])	expression variation rate tagln (tagln)	expression variation rate serpina3 (serpina3)	expression variation rate depp (depp)	expression variation rate kiaa1001 (kiaa1001)	expression variation rate fabp1 (fabp1)	expression variation rate mgc4171 (mgc4171)	expression variation rate flj22362 (flj22362)	expression variation rate asah1 (asah1)	expression variation rate hpn (hpn)	expression variation rate nr0b2 (nr0b2)	expression variation rate slc2a3 (slc2a3)	expression variation rate lss (lss)	Structure (SMILES)	addition concentration (highest concentration at which cells survived after 72 hr of culture) (HepG2 cells [2]) [µmol/L]
−	0.52	1.31	1.38	1.32	1.50	1.24	0.93	0.77	1.43	1.49	0.44	1.52	O=C(CCCN1CCC(O)(c2ccc(Cl)cc2)CC1)c1ccc(F)cc1 [haloperidol]	8.3
+	0.71	2.37	2.29	2.24	5.30	1.53	1.95	1.47	2.71	2.36	0.48	4.33	CC(=O)N1CCN(c2ccc(OCC3COC(Cn4ccnc4)(c4ccc(Cl)cc4Cl)O3)cc2)CC1 (centres unmarked) [ketoconazole]	8.3
++	0.26	2.50	2.55	1.98	2.49	1.93	3.42	3.12	2.22	2.09	0.22	3.10	C1CCC(C(CC2CCCCN2)C2CCCCC2)CC1 (centres unmarked) [perhexiline]	8.3
